The source of these data is PubChem BioAssay AID328 (DTP/NCI, 2004).

Several values for one entry are separate records, joined by “and”; a condition that tells them apart may be missing. Equal values may be shown once. Toxic doses and inconclusive results are not listed.

The experiment has as its system BDF1 mice, P388 leukemia ip, median survival T/C. The experiment is described as follows: NCI In Vivo Anticancer Drug Screen. Data for tumor model P388 Leukemia (intraperitoneal) in B6D2F1 (BDF1) mice. The settings on record: endpoint: median survival time, higher = longer survival. Put shortly:
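Survival ratio, drug arm over vehicle arm, in mice with a transplanted tumour.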

The mark [1] stands for this setting: dose: 600.0 mg/kg/injection, schedule: Q01DX009 (ip), vehicle: saline with Tween-80.
Where [2] appears, read: dose: 25.0 mg/kg/injection, schedule: Q01DX009 (ip), vehicle: saline with Tween-80.
The mark [3] stands for this setting: dose: 6.25 mg/kg/injection, schedule: Q01DX009 (ip), vehicle: saline.
[4] abbreviates: dose: 100.0 mg/kg/injection, schedule: Q04DX003 (ip), vehicle: saline with Tween-80.
Where [5] appears, read: dose: 150.0 mg/kg/injection, schedule: Q01DX009 (ip), vehicle: saline with Tween-80.
Where [6] appears, read: dose: 200.0 mg/kg/injection, schedule: Q04DX003 (ip), vehicle: saline with Tween-80.
Where [7] appears, read: dose: 400.0 mg/kg/injection, schedule: Q04DX003 (ip), vehicle: saline with Tween-80.
Where [8] appears, read: dose: 50.0 mg/kg/injection, schedule: Q01DX009 (ip), vehicle: saline with Tween-80.
[9] abbreviates: dose: 100.0 mg/kg/injection, schedule: Q01DX009 (ip), vehicle: saline with Tween-80.
Setting [10] is: dose: 200.0 mg/kg/injection, schedule: Q01DX009 (ip), vehicle: saline with Tween-80.
[11] abbreviates: dose: 12.5 mg/kg/injection, schedule: Q01DX009 (ip), vehicle: saline with Tween-80.
The mark [12] stands for this setting: dose: 12.5 mg/kg/injection, schedule: Q04DX003 (ip), vehicle: saline with Tween-80.
Setting [13] is: dose: 25.0 mg/kg/injection, schedule: Q04DX003 (ip), vehicle: saline with Tween-80.
[14] abbreviates: dose: 400.0 mg/kg/injection, schedule: Q01DX009 (ip), vehicle: saline with Tween-80.
Where [15] appears, read: dose: 12.5 mg/kg/injection, schedule: Q01DX009 (ip), vehicle: saline.

Take `CCOC(=O)c1[nH]cnc1/N=N/N(C)CCO`: the T/C is 104 % of control (dose: 14.0 mg/kg/injection, schedule: Q01DX009 (ip), vehicle: saline); 100 % of control (dose: 21.0 mg/kg/injection, schedule: Q01DX009 (ip), vehicle: saline); 115 % of control (dose: 66.0 mg/kg/injection, schedule: Q01DX009 (ip), vehicle: saline); 113 % of control (dose: 264.0 mg/kg/injection, schedule: Q01DX009 (ip), vehicle: saline with Tween-80); 118 % of control under setting [1]; 163 % of control (dose: 600.0 mg/kg/injection, schedule: Q01DX009 (ip), vehicle: saline).
As to `[N-]=[N+]=NC(=O)c1ccccn1`, the T/C under setting [2] was 101 % of control.
For `O=COCC(O)COC=O`, the T/C was 103 % of control (dose: 50.0 mg/kg/injection, schedule: Q04DX003 (ip), vehicle: saline); 112 % of control (dose: 100.0 mg/kg/injection, schedule: Q04DX003 (ip), vehicle: saline); 112 % of control (dose: 200.0 mg/kg/injection, schedule: Q04DX003 (ip), vehicle: saline).
For the molecule `C=CCN1/C(=C/C=C\c2sc3ccccc3[n+]2CC=C)Sc2ccccc21`, the T/C by setting is: (dose: 0.12 mg/kg/injection, schedule: Q01DX009 (ip), vehicle: saline) 100 % of control; (dose: 0.25 mg/kg/injection, schedule: Q04DX003 (ip), vehicle: Klucel (hydroxypropylcellulose) (HPC)) 175 % of control; (dose: 0.5 mg/kg/injection, schedule: Q04DX003 (ip), vehicle: Klucel (hydroxypropylcellulose) (HPC)) 115 % of control; (dose: 1.0 mg/kg/injection, schedule: Q01DX009 (ip), vehicle: saline) 154 % of control; (dose: 1.0 mg/kg/injection, schedule: Q01DX010 (ip), vehicle: saline) 123 % of control; (dose: 1.0 mg/kg/injection, schedule: Q04DX003 (ip), vehicle: Klucel (hydroxypropylcellulose) (HPC)) 110 % of control. Moreover, the T/C runs as follows: (dose: 63.0 micrograms/kg/injection, schedule: Q01DX010 (ip), vehicle: saline) 90 % of control; (dose: 125.0 micrograms/kg/injection, schedule: Q01DX010 (ip), vehicle: saline) 90 % of control; (dose: 250.0 micrograms/kg/injection, schedule: Q01DX010 (ip), vehicle: saline) 90 % of control.
`O=C1OC(c2ccccc2)=N/C1=C/c1cccs1`: the T/C by setting is: (dose: 100.0 mg/kg/injection, schedule: Q01DX009 (ip), vehicle: Klucel (hydroxypropylcellulose) (HPC)) 96 % of control; (dose: 200.0 mg/kg/injection, schedule: Q01DX009 (ip), vehicle: Klucel (hydroxypropylcellulose) (HPC)) 88 % of control; (dose: 400.0 mg/kg/injection, schedule: Q01DX009 (ip), vehicle: Klucel (hydroxypropylcellulose) (HPC)) 92 % of control.
Regarding `Cc1cc(Oc2ccc(Cl)cc2NC(=O)Nc2cccc(C(F)(F)F)c2)cc(S(=O)(=O)O)c1Cl`, the T/C was 100 % of control (dose: 25.0 mg/kg/injection, schedule: Q01DX001 (ip), vehicle: other); 108 % of control (dose: 50.0 mg/kg/injection, schedule: Q01DX001 (ip), vehicle: other); 100 % of control (dose: 100.0 mg/kg/injection, schedule: Q01DX001 (ip), vehicle: other).
`[CH3][Sn]([CH3])([Cl])[S]CCN`: the T/C under setting [3] was 123 % of control.
For `CC(C)CCOC(=O)C(Br)c1ccccc1` (configuration not stated), the T/C is, setting by setting: (dose: 44.0 mg/kg/injection, schedule: Q01DX009 (ip), vehicle: saline with Tween-80) 110 % of control; (dose: 66.0 mg/kg/injection, schedule: Q01DX009 (ip), vehicle: saline with Tween-80) 107 % of control; under setting [4], 108 % of control; under setting [5], 115 % of control; under setting [6], 116 % of control; under setting [7], 104 % of control.
Regarding `O=C(c1ccc[nH]1)C(Cl)(Cl)Cl`, the T/C under setting [8] is 108 % of control, the T/C under setting [9] was 117 % of control and the T/C under setting [10] was 115 % of control.
In the same order, the values of `O=C(O)c1oc2ccccc2c1CO` are 99 % of control, 101 % of control and 105 % of control.
`Cc1[nH]c(=O)[nH]c(=O)c1NC(=O)c1ccccc1[N+](=O)[O-]`: the T/C runs as follows: under setting [11], 95 % of control; under setting [12], 92 % of control; under setting [2], 104 % of control; under setting [13], 92 % of control; under setting [8], 87 % of control; (dose: 50.0 mg/kg/injection, schedule: Q04DX003 (ip), vehicle: saline with Tween-80) 92 % of control.
`Cc1ccc(NC(=O)NC2CCCCC2)cc1`: the T/C by setting is: under setting [9], 91 % of control; under setting [10], 88 % of control; under setting [14], 100 % of control.
For `Clc1ccc2nnnn2n1`, the T/C by setting is: (dose: 16.25 mg/kg/injection, schedule: Q01DX009 (ip), vehicle: saline with Tween-80) 99 % of control; (dose: 32.5 mg/kg/injection, schedule: Q01DX009 (ip), vehicle: saline with Tween-80) 101 % of control; (dose: 40.0 mg/kg/injection, schedule: Q01DX009 (ip), vehicle: saline with Tween-80) 97 % of control; (dose: 80.0 mg/kg/injection, schedule: Q01DX009 (ip), vehicle: saline with Tween-80) 111 % of control; (dose: 130.0 mg/kg/injection, schedule: Q01DX009 (ip), vehicle: saline with Tween-80) 151 % of control.
Regarding `O=C(O)CNC(=O)c1ccc([N+](=O)[O-])cc1`, the T/C by setting is: under setting [9], 90 % of control; under setting [10], 90 % of control; under setting [14], 86 % of control.
Take `O=C1CC(c2ccc(Cl)cc2)NC(c2ccc(Cl)cc2)C1` (configuration not stated): the T/C was 101 % of control under setting [9]; 107 % of control under setting [4]; 111 % of control under setting [5]; 116 % of control under setting [10]; 100 % of control under setting [6]; 107 % of control under setting [7].
Regarding `C[N+]1=C2CCCCC2=C(N)CC1`, the T/C under setting [3] was 110 % of control; the T/C (dose: 6.25 mg/kg/injection, schedule: Q04DX003 (ip), vehicle: saline sonified) was 100 % of control; the T/C under setting [15] was 100 % of control; the T/C (dose: 12.5 mg/kg/injection, schedule: Q04DX003 (ip), vehicle: saline sonified) is 100 % of control; the T/C (dose: 25.0 mg/kg/injection, schedule: Q01DX009 (ip), vehicle: saline) is 110 % of control; the T/C (dose: 25.0 mg/kg/injection, schedule: Q04DX003 (ip), vehicle: saline sonified) was 100 % of control.
For `CN(C)/N=N/c1nc(Cc2ccccc2)[nH]c1C(N)=O`, the T/C is 100 % of control (dose: 177.0 mg/kg/injection, schedule: Q01DX009 (ip), vehicle: saline with Tween-80); 154 % of control (dose: 266.0 mg/kg/injection, schedule: Q01DX009 (ip), vehicle: saline with Tween-80); 150 % of control under setting [14]; 195 % of control under setting [1].
On to `CCOC(=O)/C=C(\C)C(=O)c1ccc(OC)c(OC)c1OCc1ccccc1`, for which the T/C is, setting by setting: under setting [11], 100 % of control; under setting [2], 100 % of control; under setting [8], 90 % of control; under setting [9], 90 % of control; under setting [10], 100 % of control.
As for `CCNC(=O)OCc1c(COC(=O)NCC)c(-c2ccc(F)cc2)n2c1CCC2`, under “dose: 25.0 mg/kg/injection, schedule: Q01DX009 (ip), vehicle: other”, the T/C was 98 % of control.
In the case of `Nc1nc(-c2c[nH]c(=O)[nH]c2=O)cs1`, the T/C was 103 % of control under setting [8] and 98 % of control under setting [9].
For `CCCCCCCCCCCC[N+](C)(C)CCC[N+](C)(C)CCCCCCCCCCCC`, the T/C was 109 % of control under setting [3] and 116 % of control under setting [15].
Take `CCCCCC[N+](CCCCCC)(CCCCCC)CCCCCC`: the T/C (dose: 3.0 mg/kg/injection, schedule: Q01DX009 (ip), vehicle: saline with Tween-80) was 123 % of control; the T/C (dose: 6.0 mg/kg/injection, schedule: Q01DX009 (ip), vehicle: saline with Tween-80) is 116 % of control and 119 % of control; the T/C (dose: 6.25 mg/kg/injection, schedule: Q01DX009 (ip), vehicle: saline with Tween-80) was 114 % of control; the T/C (dose: 6.25 mg/kg/injection, schedule: Q04DX003 (ip), vehicle: saline with Tween-80) is 108 % of control; the T/C under setting [12] was 95 % of control; the T/C under setting [13] was 113 % of control.
